Experimental data: patent US12612360B2 (Sanofi, priority 2020, dated 2026)
Counter-ions that a name gives are not always drawn.

Target: T1, ERα (Homo sapiens, UniProt P03372)
T1 construct: host or cells: MCF7
T1 sequence (P03372 1-595): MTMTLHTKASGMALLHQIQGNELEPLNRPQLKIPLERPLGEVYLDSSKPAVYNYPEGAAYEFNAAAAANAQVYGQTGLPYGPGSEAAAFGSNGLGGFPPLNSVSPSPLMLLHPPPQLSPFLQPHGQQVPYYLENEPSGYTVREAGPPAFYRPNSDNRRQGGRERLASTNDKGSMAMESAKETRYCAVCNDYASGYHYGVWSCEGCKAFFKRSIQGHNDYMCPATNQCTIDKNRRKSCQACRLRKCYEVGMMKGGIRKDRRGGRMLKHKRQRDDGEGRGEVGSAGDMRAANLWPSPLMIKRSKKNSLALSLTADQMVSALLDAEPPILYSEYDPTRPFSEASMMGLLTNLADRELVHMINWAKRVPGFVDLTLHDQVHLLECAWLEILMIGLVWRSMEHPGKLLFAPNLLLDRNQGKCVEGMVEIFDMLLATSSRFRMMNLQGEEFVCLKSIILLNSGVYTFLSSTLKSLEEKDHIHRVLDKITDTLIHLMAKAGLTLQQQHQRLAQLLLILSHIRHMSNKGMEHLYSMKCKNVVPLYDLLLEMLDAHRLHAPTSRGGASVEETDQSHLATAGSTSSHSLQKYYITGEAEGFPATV
Assay: Estrogen receptor degradation activity: breast cancer cell ERα in cell western assay (MCF7 cells)
Assay type: cell-based
Conditions: for % Degradation At 0.3 μM: 4 hours, relative to fulvestrant 0.1 μM positive control; for DC50: 4 hours post compound addition, concentration which degrades 50% of the estrogen receptor, read-out: Degradation IC50
In short: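 In-cell western readout: ERα immunofluorescence (Alexa 488) normalised to DNA signal (Syto-64) after formalin fixation. Compounds dosed for 4 h on MCF7 cells in stripped-serum, phenol-red-free medium over nine 1:5 steps, 0.3 to […] final; fulvestrant 0.1 μM control. IC50 in nM for 50% ERα degradation.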

Compound	% Degradation At 0.3 μM [%]	DC50 [nM]
O=C(O)c1ccc2c(c1)CCCC(c1c(F)cc(C(F)(F)F)cc1F)=C2c1ccc(C=C2CN(CCCF)C2)cc1 [Example 21, 8-(2,6-difluoro-4-(trifluoromethyl)phenyl)-9-(4-((1-(3-fluoropropyl)azetidin-3-ylidene)methyl)phenyl)-6,7-dihydro-5H-benzo[7]annulene-3-carboxylic acid]	93	0.3
COc1ccc(C2=C(c3ccc(C=C4CN(CCCF)C4)cc3)c3ccc(C(=O)O)cc3CCC2)c(Cl)c1 [Example 75, 8-(2-chloro-4-methoxyphenyl)-9-(4-((1-(3-fluoropropyl)azetidin-3-ylidene)methyl)phenyl)-6,7-dihydro-5H-benzo[7]annulene-3-carboxylic acid]	92	1.1
O=C(O)c1ccc2c(c1)CCCC(c1c(F)cccc1Cl)=C2c1ccc(C=C2CN(CCCF)C2)cc1 [Example 42, 8-(2-chloro-6-fluorophenyl)-9-(4-((1-(3-fluoropropyl)azetidin-3-ylidene)methyl)phenyl)-6,7-dihydro-5H-benzo[7]annulene-3-carboxylic acid]	91	0.2
Cc1c(C2=C(c3ccc(C=C4CN(CCCF)C4)cc3)c3ccc(C(=O)O)cc3CCC2)ccc(F)c1F [Example 29, 8-(3,4-difluoro-2-methylphenyl)-9-(4-((1-(3-fluoropropyl)azetidin-3-ylidene)methyl)phenyl)-6,7-dihydro-5H-benzo[7]annulene-3-carboxylic acid]	96	0.3
CC1CCc2cc(C(=O)O)ccc2C(c2ccc(C=C3CN(CCCF)C3)cc2)=C1c1ccc(Cl)cc1 (single isomer, unassigned) [Example 184, 8-(4-chlorophenyl)-9-(4-((1-(3-fluoropropyl)azetidin-3-ylidene)methyl)phenyl)-7-methyl-6,7-dihydro-5H-benzo[7]annulene-3-carboxylic acid]	90	0.4
O=C(O)c1ccc2c(c1)CCCC(C1CCOCC1)=C2c1ccc(C=C2CN(CCCF)C2)cc1 [Example 60, 9-(4-((1-(3-Fluoropropyl)azetidin-3-ylidene)methyl)phenyl)-8-(tetrahydro-2H-pyran-4-yl)-6,7-dihydro-5H-benzo[7]annulene-3-carboxylic acid]	91	2.3
O=C(O)c1ccc2c(c1)CCCC(c1ncc(F)cc1C(F)(F)F)=C2c1ccc(C=C2CN(CCCF)C2)cc1 [Example 18, 8-(5-fluoro-3-(trifluoromethyl)pyridin-2-yl)-9-(4-((1-(3-fluoropropyl)azetidin-3-ylidene)methyl)phenyl)-6,7-dihydro-5H-benzo[7]annulene-3-carboxylic acid]	90	0.6
O=C(O)c1ccc2c(c1)OCCC(c1ccc(Cl)cc1Cl)=C2c1ccc(C=C2CN(CCCF)C2)cc1 [Example 114, 4-(2,4-Dichlorophenyl)-5-(4-((1-(3-fluoropropyl)azetidin-3-ylidene)methyl)phenyl)-2,3-dihydrobenzo[b]oxepine-8-carboxylic acid hydrochloride]	91	0.4
O=C(O)c1ccc2c(c1)CCCC(c1ccc(C(F)(F)F)cc1F)=C2c1ccc(C=C2CN(CCCF)C2)cc1 [Example 49, 8-(2-fluoro-4-(trifluoromethyl)phenyl)-9-(4-((1-(3-fluoropropyl)azetidin-3-ylidene)methyl)phenyl)-6,7-dihydro-5H-benzo[7]annulene-3-carboxylic acid]	98	0.3
Cc1cccc(C)c1C1=C(c2ccc(C=C3CN(CCCF)C3)cc2)c2ccc(C(=O)O)cc2CCC1 [Example 97, 8-(2,6-dimethylphenyl)-9-(4-((1-(3-fluoropropyl)azetidin-3-ylidene)methyl)phenyl)-6,7-dihydro-5H-benzo[7]annulene-3-carboxylic acid]	95	0.2
Cc1ccc(C2=C(c3ccc(C=C4CN(CCCF)C4)c(F)c3)c3ccc(C(=O)O)cc3CCC2)c(F)c1 [Example 69, 9-(3-fluoro-4-((1-(3-fluoropropyl)azetidin-3-ylidene)methyl)phenyl)-8-(2-fluoro-4-methylphenyl)-6,7-dihydro-5H-benzo[7]annulene-3-carboxylic acid]	94	0.5
O=C(O)c1ccc2c(c1)CCCC(c1cccc3c1CCCC3)=C2c1ccc(C=C2CN(CCCF)C2)cc1 [Example 177, 9-(4-((1-(3-fluoropropyl)azetidin-3-ylidene)methyl)phenyl)-8-(5,6,7,8-tetrahydronaphthalen-1-yl)-6,7-dihydro-5H-benzo[7]annulene-3-carboxylic acid]	92	1
Cc1cccc(C2=C(c3ccc(C=C4CN(CCCF)C4)cc3)c3ccc(C(=O)O)cc3CCC2)c1C(F)(F)F [Example 118, 9-(4-((1-(3-fluoropropyl)azetidin-3-ylidene)methyl)phenyl)-8-(3-methyl-2-(trifluoromethyl)phenyl)-6,7-dihydro-5H-benzo[7]annulene-3-carboxylic acid]	93	0.4
CC1(C)CCCC(C2=C(c3ccc(C=C4CN(CCCF)C4)cc3)c3ccc(C(=O)O)cc3CCC2)C1 (single isomer, unassigned) [Example 172, 8-(3,3-dimethylcyclohexyl)-9-(4-((1-(3-fluoropropyl)azetidin-3-ylidene)methyl)phenyl)-6,7-dihydro-5H-benzo[7]annulene-3-carboxylic acid]	89	0.4
O=C(O)c1ccc2c(c1)CCCC(c1cccc(Cl)c1F)=C2c1ccc(C=C2CN(CCCF)C2)cc1 [Example 47, 8-(3-chloro-2-fluorophenyl)-9-(4-((1-(3-fluoropropyl)azetidin-3-ylidene)methyl)phenyl)-6,7-dihydro-5H-benzo[7]annulene-3-carboxylic acid]	91	0.3
Cc1c(C2=C(c3ccc(C=C4CN(CCC(F)F)C4)cc3)c3ccc(C(=O)O)cc3CCC2)ccc(F)c1F [Example 22, 8-(3,4-difluoro-2-methylphenyl)-9-(4-((1-(3,3-difluoropropyl)azetidin-3-ylidene)methyl)phenyl)-6,7-dihydro-5H-benzo[7]annulene-3-carboxylic acid]	93	0.5
O=C(O)c1ccc2c(c1)CCCC(CCc1ccccc1)=C2c1ccc(C=C2CN(CCCF)C2)cc1 [Example 168, 9-(4-((1-(3-fluoropropyl)azetidin-3-ylidene)methyl)phenyl)-8-phenethyl-6,7-dihydro-5H-benzo[7]annulene-3-carboxylic acid]	95	0.3
[2H]C([2H])(CCF)N1CC(=Cc2ccc(C3=C(c4ccc(Cl)cc4Cl)CCCc4cc(C(=O)O)ccc43)cc2)C1 [Example 122, 8-(2,4-dichlorophenyl)-9-(4-((1-(3-fluoropropyl-1,1-d2)azetidin-3-ylidene)methyl)phenyl)-6,7-dihydro-5H-benzo[7]annulene-3-carboxylic acid]	94	0.4
O=C(O)c1ccc2c(c1)CCCC(c1cc(F)cc3c1CCC3)=C2c1ccc(C=C2CN(CCCF)C2)cc1 [Example 4, 8-(6-fluoro-2,3-dihydro-1H-inden-4-yl)-9-(4-((1-(3-fluoropropyl)azetidin-3-ylidene)methyl)phenyl)-6,7-dihydro-5H-benzo[7]annulene-3-carboxylic acid]	86	0.8
O=C(O)c1ccc2c(c1)CCCC(c1ccc(F)c3c1CCC3)=C2c1ccc(C=C2CN(CCC(F)F)C2)cc1 [Example 165, 9-(4-((1-(3,3-difluoropropyl)azetidin-3-ylidene)methyl)phenyl)-8-(7-fluoro-2,3-dihydro-1H-inden-4-yl)-6,7-dihydro-5H-benzo[7]annulene-3-carboxylic acid]	96	1.9
O=C(O)c1ccc2c(c1)CCCC(c1ccc(F)cc1F)=C2c1ccc(C=C2CN(CCCF)C2)cc1 [Example 54, 8-(2,4-difluorophenyl)-9-(4-((1-(3-fluoropropyl)azetidin-3-ylidene)methyl)phenyl)-6,7-dihydro-5H-benzo[7]annulene-3-carboxylic acid]	93	0.4
O=C(O)c1ccc2c(c1)CCCC(c1cccc(C(F)(F)F)c1F)=C2c1ccc(C=C2CN(CCC(F)F)C2)cc1 [Example 129, 9-(4-((1-(3,3-difluoropropyl)azetidin-3-ylidene)methyl)phenyl)-8-(2-fluoro-3-(trifluoromethyl)phenyl)-6,7-dihydro-5H-benzo[7]annulene-3-carboxylic acid]	94	1
